Results taken from US9499550B2 (BRISTOL-MYERS SQUIBB COMPANY, priority 2012, dated 2016).
Where two headings read alike, the source gives them in different places.

Legend:
[1] = test system: HCV genotype 1b (Con1) replicon in HUH-7 cells; assay: HCV replicon luciferase reporter assay, genotype 1b; assay type: cell-based; details: Hepatitis C virus, Huh-7, 72 h, 3 days incubation, read-out: LE_1b (EC50, range)
Method in brief: (§1)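 Replicon inhibition for both genotypes was measured as Renilla luciferase signal (EnduRen, 7.5 μM final, 2 h) after 3-day, 37° C exposure of replicon-bearing HUH-7 cells in 4% FCS DMEM, 0.5% DMSO. The 1b construct carries S1179I; the 1a H77 construct carries P1496L and S2204I. Twenty-point, 3-fold dilutions were fitted four-parametrically for EC50, and CC50 was taken from multiplexed Cell Titer-Blue.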

[2] = test system: HCV genotype 1a (H77 strain) replicon in HUH-7 cells; assay: HCV replicon luciferase reporter assay, genotype 1a; assay type: cell-based; details: Hepatitis C virus, Huh-7, 72 h, 3 days incubation, read-out: LE_1a (EC50, range)
Method in brief: as §1

[3] = HCV genotype 1b replicon luciferase
[4] = HCV genotype 1a replicon luciferase
[5] = HCV genotype 1b replicon luciferase assay, range class
[6] = HCV genotype 1a replicon luciferase assay, range class

SMILES | EC50 [1, 3] | EC50 [2, 4] | EC50 [1, 5] | EC50 [2, 6] | further results
C[C@H]1CC/C=C\[C@@H]2C[C@@]2(C(=O)NS(=O)(=O)C2CC2)NC(=O)[C@@H]2C[C@@H](Oc3nc4ccccc4c4ccccc34)CN2C(=O)[C@@H](NC(=O)OC(C)(C)C)[C@H](C)C1 [Compound 5182, tert-butyl ((2R,6S,7R,9S,13aS,14aR,16aS,Z)-14a-((cyclopropylsulfonyl)carbamoyl)-7,9-dimethyl-5,16-dioxo-2-(phenanthridin-6-yloxy)-1,2,3,5,6,7,8,9,10,11,13a,14,14a,15,16,16a-hexadecahydrocyclopropa[e]pyrrolo[1,2-a][1,4]diazacyclopentadecin-6-yl)carbamate] | < 5.46 nM | < 5.46 nM | – | – | –
CC[C@@H]1C[C@H](C)CC/C=C\[C@@H]2C[C@@]2(C(=O)NS(=O)(=O)C2CC2)NC(=O)[C@@H]2C[C@@H](Oc3nc4cc(OC)ccc4nc3Cl)CN2C(=O)[C@H]1NC(=O)OC(C)(C)C [Compound 4270, tert-butyl ((2R,6S,7R,9R,13aS,14aR,16aS,Z)-2-((3-chloro-7-methoxyquinoxalin-2-yl)oxy)-14a-((cyclopropylsulfonyl)carbamoyl)-7-ethyl-9-methyl-5,16-dioxo-1,2,3,5,6,7,8,9,10,11,13a,14,14a,15,16,16a-hexadecahydrocyclopropa[e]pyrrolo[1,2-a][1,4]diazacyclopentadecin-6-yl)carbamate] | 0.1 to 0.5 nM | 1.01 to 5 nM | – | – | –
CC[C@@H]1C[C@H](C)CC/C=C\[C@@H]2C[C@@]2(C(=O)NS(=O)(=O)C2(CF)CC2)NC(=O)[C@@H]2C[C@@H](Oc3ncc(N4CCOCC4)c4ccccc34)CN2C(=O)[C@H]1NC(=O)OC(C)(C)C [Compound 5441, tert-butyl ((2R,6S,7R,9R,13aS,14aR,16aS,Z)-7-ethyl-14a-(((1-(fluoromethyl)cyclopropyl)sulfonyl)carbamoyl)-9-methyl-2-((4-morpholinoisoquinolin-1-yl)oxy)-5,16-dioxo-1,2,3,5,6,7,8,9,10,11,13a,14,14a,15,16,16a-hexadecahydrocyclopropa[e]pyrrolo[1,2-a][1,4]diazacyclopentadecin-6-yl)carbamate] | 1.01 to 5 nM | 1.01 to 5 nM | – | – | –
COc1ccc2c(O[C@@H]3C[C@H]4C(=O)N[C@]5(C(=O)NS(=O)(=O)C6(C)CC6)C[C@H]5/C=C\CC[C@H](C)C[C@@H](C)[C@H](NC(=O)OC(C)(C)C(F)(F)F)C(=O)N4C3)nc(-c3ccc(OC(C)C)cc3)nc2c1 [Compound 3011, 1,1,1-trifluoro-2-methylpropan-2-yl((2R,6S,7R,9S,13aS,14aR,16aS,Z)-2-((2-(4-isopropoxyphenyl)-7-methoxyquinazolin-4-yl)oxy)-7,9-dimethyl-14a-(((1-methylcyclopropyl)sulfonyl)carbamoyl)-5,16-dioxo-1,2,3,5,6,7,8,9,10,11,13a,14,14a,15,16,16a-hexadecahydrocyclopropa[e]pyrrolo[1,2-a][1,4]diazacyclopentadecin-6-yl)carbamate] | – | – | < 5.46 nM | 4.82 to 103 nM | –
COc1ccc2c(O[C@@H]3C[C@H]4C(=O)N[C@]5(C(=O)NS(=O)(=O)C6CC6)C[C@H]5/C=C\CC[C@@H](C)C[C@@H](C)[C@H](NC(=O)OC(C)(C)C(C)(F)F)C(=O)N4C3)nc(-c3ccc(OC(C)C)cn3)cc2c1 [Compound 5475, 3,3-difluoro-2-methylbutan-2-yl((2R,6S,7R,9R,13aS,14aR,16aS,Z)-14a-((cyclopropylsulfonyl)carbamoyl)-2-((3-(5-isopropoxypyridin-2-yl)-6-methoxyisoquinolin-1-yl)oxy)-7,9-dimethyl-5,16-dioxo-1,2,3,5,6,7,8,9,10,11,13a,14,14a,15,16,16a-hexadecahydrocyclopropa[e]pyrrolo[1,2-a][1,4]diazacyclopentadecin-6-yl)carbamate] | 0.51 to 1 nM | 0.51 to 1 nM | – | – | –
CCC(C)(OC(=O)N[C@@H]1C(=O)N2C[C@H](Oc3nccc4c5c(ccc34)OCCO5)C[C@H]2C(=O)N[C@]2(C(=O)NS(=O)(=O)C3CC3)C[C@H]2/C=C\CC[C@@H](C)C[C@H]1C)C(F)(F)F (some centres unmarked) [Compound 5260] | – | – | – | – | EC50 ([1]; GETYPE1B, HCV genotype 1b replicon luciferase): < 5.46 nM; EC50 ([2]; GETYPE1A, HCV genotype 1a replicon luciferase): < 5.46 nM
COc1ccc2c(O[C@@H]3C[C@H]4C(=O)N[C@]5(C(=O)NS(=O)(=O)C6(C)CC6)C[C@H]5/C=C\CC[C@H](C)C[C@@H](C)[C@H](NC(=O)O[C@H](C)C(F)(F)F)C(=O)N4C3)nc(N(C)C)cc2c1 [Compound 3112, (R)-1,1,1-trifluoropropan-2-yl ((2R,6S,7R,9S,13aS,14aR,16aS,Z)-2-((3-(dimethylamino)-6-methoxyisoquinolin-1-yl)oxy)-7,9-dimethyl-14a-(((1-methylcyclopropyl)sulfonyl)carbamoyl)-5,16-dioxo-1,2,3,5,6,7,8,9,10,11,13a,14,14a,15,16,16a-hexadecahydrocyclopropa[e]pyrrolo[1,2-a][1,4]diazacyclopentadecin-6-yl)carbamate] | – | – | 4.82 to 103 nM | 4.82 to 103 nM | –
C[C@@H]1CC/C=C\[C@@H]2C[C@@]2(C(=O)NS(=O)(=O)C2(C)CC2)NC(=O)[C@@H]2C[C@@H](Oc3nccc4c5c(ccc34)N(C)CCO5)CN2C(=O)[C@@H](NC(=O)OC(C)(C)C(F)(F)F)[C@H](C)C1 [Compound 5296, 1,1,1-trifluoro-2-methylpropan-2-yl((2R,6S,7R,9R,13aS,14aR,16aS,Z)-7,9-dimethyl-2-((4-methyl-3,4-dihydro-2H-[1,4]oxazino[2,3-f]isoquinolin-7-yl)oxy)-14a-(((1-methylcyclopropyl)sulfonyl)carbamoyl)-5,16-dioxo-1,2,3,5,6,7,8,9,10,11,13a,14,14a,15,16,16a-hexadecahydrocyclopropa[e]pyrrolo[1,2-a][1,4]diazacyclopentadecin-6-yl)carbamate] | < 5.46 nM | < 5.46 nM | – | – | –
COc1cc(F)cc2c(O[C@@H]3C[C@H]4C(=O)N[C@]5(C(=O)NS(=O)(=O)C6(C)CC6)C[C@H]5/C=C\CC[C@H](C)C[C@@H](C)[C@H](NC(=O)OCC5(C)CC5)C(=O)N4C3)nccc12 [Compound 3161, (1-methylcyclopropyl)methyl ((2R,6S,7R,9S,13aS,14aR,16aS,Z)-2-((7-fluoro-5-methoxyisoquinolin-1-yl)oxy)-7,9-dimethyl-14a-(((1-methylcyclopropyl)sulfonyl)carbamoyl)-5,16-dioxo-1,2,3,5,6,7,8,9,10,11,13a,14,14a,15,16,16a-hexadecahydrocyclopropa[e]pyrrolo[1,2-a][1,4]diazacyclopentadecin-6-yl)carbamate] | – | – | < 5.46 nM | 4.82 to 103 nM | –
CC[C@@H]1C[C@@H](C)CC/C=C\[C@@H]2C[C@@]2(C(=O)NS(=O)(=O)C2(C)CC2)NC(=O)[C@@H]2C[C@@H](Oc3nnc(OC)c4ccccc34)CN2C(=O)[C@H]1NC(=O)OC(C)(C)C [Compound 5025, tert-butyl ((2R,6S,7R,9S,13aS,14aR,16aS,Z)-7-ethyl-2-((4-methoxyphthalazin-1-yl)oxy)-9-methyl-14a-(((1-methylcyclopropyl)sulfonyl)carbamoyl)-5,16-dioxo-1,2,3,5,6,7,8,9,10,11,13a,14,14a,15,16,16a-hexadecahydrocyclopropa[e]pyrrolo[1,2-a][1,4]diazacyclopentadecin-6-yl)carbamate] | < 5.46 nM | 4.82 to 103 nM | – | – | –
COc1ccc2c(O[C@@H]3C[C@H]4C(=O)N[C@]5(C(=O)NS(=O)(=O)C6CC6)C[C@H]5/C=C\CC[C@H](C)C[C@@H](C)[C@H](NC(=O)OC(C)(C)C)C(=O)N4C3)nccc2c1F [Compound 3147, tert-butyl ((2R,6S,7R,9S,13aS,14aR,16aS,Z)-14a-((cyclopropylsulfonyl)carbamoyl)-2-((5-fluoro-6-methoxyisoquinolin-1-yl)oxy)-7,9-dimethyl-5,16-dioxo-1,2,3,5,6,7,8,9,10,11,13a,14,14a,15,16,16a-hexadecahydrocyclopropa[e]pyrrolo[1,2-a][1,4]diazacyclopentadecin-6-yl)carbamate] | – | – | < 5.46 nM | 4.82 to 103 nM | –
[2H]C([2H])([2H])C(OC(=O)N[C@@H]1C(=O)N2C[C@H](Oc3nccc4cc(OC)ccc34)CC2C(=O)N[C@]2(C(=O)NS(=O)(=O)C3(C)CC3)C[C@H]2/C=C\CC[C@@H](C)C[C@H]1C)(C([2H])([2H])[2H])C(F)(F)F (stereo partly drawn) [Compound 5175, 1,1,1,3,3,3-hexadeutero-2-(trifluoromethyl)propan-2-yl((2R,6S,7R,9R,13aS,14aR,16aS,Z)-2-((6-methoxyisoquinolin-1-yl)oxy)-7,9-dimethyl-14a-(((1-methylcyclopropyl)sulfonyl)carbamoyl)-5,16-dioxo-1,2,3,5,6,7,8,9,10,11,13a,14,14a,15,16,16a-hexadecahydrocyclopropa[e]pyrrolo[1,2-a][1,4]diazacyclopentadecin-6-yl)carbamate] | < 5.46 nM | < 5.46 nM | – | – | –
CCN(C)c1cc2cc(OC)ccc2c(O[C@@H]2C[C@H]3C(=O)N[C@]4(C(=O)NS(=O)(=O)C5(CF)CC5)C[C@H]4/C=C\CC[C@@H](C)C[C@@H](C)[C@H](NC(=O)OC(C)(C)C)C(=O)N3C2)n1 [Compound 1135, tert-butyl ((2R,6S,7R,9R,13aS,14aR,16aS,Z)-2-((3-(ethyl(methyl)amino)-6-methoxyisoquinolin-1-yl)oxy)-14a-(((1-(fluoromethyl)cyclopropyl)sulfonyl)carbamoyl)-7,9-dimethyl-5,16-dioxo-1,2,3,5,6,7,8,9,10,11,13a,14,14a,15,16,16a-hexadecahydrocyclopropa[e]pyrrolo[1,2-a][1,4]diazacyclopentadecin-6-yl)carbamate] | – | – | < 5.46 nM | 4.82 to 103 nM | –
